Here are results for one compound from US4273704A, “N-Adamantane-substituted tetrapeptide amides” (G. D. Searle & Co., priority 1979, dated 1981).

Structures are written as SMILES.

The assay deals with phenyl-p-benzoquinone-induced writhing. The experiment in a line: mouse phenyl-p-benzoquinone-induced writhing test (analgesic activity). The class given is in vivo. Particulars: s.c.; 60 minutes; male CD-1 mice; dose which decreased writhing by ≥50% of control mean in 50% of the mice. On the procedure:
This test is a modification of the procedure described by L. C. Hendershot and J. Forsaith, in J. PHARMACOL. EXP. THER., 125:237(1959).
Details of the test are as follows: Groups of 10 male CD-1 mice (Charles River) weighing 18-25 g. are pretreated subcutaneously (s.c.) or intragastrically (i.g.) with the vehicle control or the compound of interest in a volume of 10 ml/kg. Phenyl-p-benzoquinone (PBQ), 2.5 mg/kg is administered intraperitoneally (i.p.) 30 or 60 minutes later as a 0.025% solution in 5% ethanol. Starting 5 minutes after the PBQ challenge, each mouse is observed for a 10 minute period during which the number of writhes are counted. A "writhe" consists of a combination or sequence of arching the back, pelvic rotation, and hind limb extension. Significant analgesia is assumed when an animal writhing frequency is ≤50% of the daily control group mean. Estimates of the ED50 defined as the dose which decreased writhing by ≥50% of the control group mean in 50% of the mice are determined using the method of J. T. Litchfield and F. Wilcoxon, J. PHARMCOL. EXP. THER., 96:99(1949).

Turning to `CN1CC[C@]23c4c5ccc(O)c4O[C@H]2[C@@H](O)C=C[C@H]3[C@H]1C5` [morphine], the “ED50 (95% confidence limits)” value is recorded as 0.1 mpk.
